The text below walks through data of patent US9345247B2, “Azaindole carboxylic acid amides and azaindole thiocarboxylic acid amides for use as insecticides and acaricides” (BAYER CROPSCIENCE AG, priority 2012, dated 2016).

Data set [1] is described as follows: log P by HPLC on reversed-phase column (C18), EEC directive 79/831 Annex V.A8. The data set is classed as physicochemical. The conditions noted are these: for chromatographic logP: reversed-phase HPLC column (C18). Put shortly:
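log P determined per EEC directive 79/831 Annex V.A8 by reversed-phase C18 HPLC at 43 °C, calibrated with unbranched alkan-2-ones (C3–C16) of known log P. Acidic-range determination at pH 2.7 with 0.1% formic acid acetonitrile/water, linear 10–95% acetonitrile gradient.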

The subject of another data set is Ctenocephalides felis. As to the kind of experiment: Ctenocephalides felis; oral (CTECFE). The data set is classed as in vivo. The conditions noted are these: 100 ppm, oral in cattle blood, after 2 days. As to the method:
Ctenocephalides felis; Oral (CTECFE)
To produce a suitable active compound formulation, 10 mg of active compound are mixed with 0.5 ml of dimethyl sulphoxide. A portion of the concentrate is diluted with citrated cattle blood, and the desired concentration is prepared.
About 20 unfed adult fleas (Ctenocephalides felis) are placed into a chamber which is closed at the top and bottom with gauze. A metal cylinder whose bottom end is closed with parafilm is placed onto the chamber. The cylinder contains the blood/active compound preparation, which can be imbibed by the fleas through the parafilm membrane.
After 2 days, the kill in % is determined 100% means that all fleas have been killed; 0% means that none of the fleas have been killed.

A further data set concerns Lucilia cuprina larvae. In words: Lucilia cuprina test (LUCICU). The data set is classed as in vivo. The conditions noted are these: 100 ppm, after 2 days. As for the experimental part: Lucilia cuprina Test (LUCICU) [table] To produce a suitable active compound formulation, 10 mg of active compound are mixed with 0.5 ml of dimethyl sulfoxide, and the concentrate is diluted with water to the desired concentration. Vessels containing horse meat treated with the active compound formulation of the desired concentration are populated with about 20 Lucilia cuprina larvae. After 2 days, the kill in % is determined 100% means that all the larvae have been killed; 0% means that none of the larvae have been killed.

Data set [2] deals with caterpillars of the armyworm (Spodoptera frugiperda). In words: Spodoptera frugiperda spray test (SPODFR). Format: in vivo. The conditions noted are these: for efficacy: 100 g/ha, spray, after 7 days. As to the method: Spodoptera frugiperda—Spray Test (SPODFR)
(§1) To produce a suitable active compound formulation, 1 part by weight of active compound is mixed with the stated amounts of solvent and emulsifier, and the concentrate is diluted with emulsifier-containing water to the desired concentration.
Leaf discs of maize (Zea mays) are sprayed with an active compound formulation of the desired concentration and, after drying, populated with caterpillars of the armyworm (Spodoptera frugiperda).
After 7 days, the efficacy in % is determined. 100% means that all the caterpillars have been killed; 0% means that no caterpillars have been killed.
To produce a suitable preparation of active compound, 1 part by weight of active compound is mixed with the stated amounts of solvent and emulsifier, and the concentrate is diluted with emulsifier-containing water to the desired concentration.
Leaf discs of maize (Zea mays) are sprayed with an active compound preparation of the desired concentration and, after drying, populated with caterpillars of the armyworm (Spodoptera frugiperda).
After the stated period of time, the effect in % is determined. 100% means that all the caterpillars have been killed; 0% means that no caterpillars have been killed.

Another data set concerns adult Musca domestica. As to the kind of experiment: Musca domestica test (MUSCDO). Format: in vivo. The conditions noted are these: 100 ppm, after 2 days. As to the method: Musca domestica Test (MUSCDO) [table] To produce a suitable active compound formulation, 10 mg of active compound are mixed with 0.5 ml of dimethyl sulfoxide, and the concentrate is diluted with water to the desired concentration. Vessels containing a sponge treated with the active compound formulation of the desired concentration are populated with adult Musca domestica. After 2 days, the kill in % is determined 100% means that all flies have been killed; 0% means that no flies have been killed.

Data set [3] relates to larvae of the mustard beetle (Phaedon cochleariae). As to the kind of experiment: Phaedon cochleariae spray test (PHAECO). The conditions noted are these: for pest or weed control at 100 g/ha / efficacy: spray, after 7 days, 100 g/ha; for pest or weed control at 100 g/ha: read-out: efficacy. The data set is classed as in vivo. The procedure, abridged:
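Chinese cabbage (Brassica pekinensis) leaf discs sprayed with compound in emulsifier-containing water at the desired concentration, dried, then infested with larvae. Efficacy scored after 7 days as % larvae killed (100% = all dead, 0% = none).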

Data set [4] relates to greenhouse red spider mite (Tetranychus urticae). In words: Tetranychus urticae spray test, OP-resistant (TETRUR). Format: in vivo. The conditions noted are these: for efficacy: 100 g/ha, spray, after 6 days. As to the method: as §1
Discs of bean leaves (Phaseolus vulgaris) infested by all stages of the greenhouse red spider mite (Tetranychus urticae) are sprayed with an active compound formulation of the desired concentration.
After 6 days, the efficacy in % is determined 100% means that all the spider mites have been killed; 0% means that none of the spider mites have been killed. […]

Another data set relates to Boophilus microplus. In words: Boophilus microplus test (BOOPMI injection). The data set is classed as in vivo. The conditions noted are these: 20 μg/animal, after 7 days. As to the method: Boophilus microplus Test (BOOPMI Injection) [table] To produce a suitable active compound formulation, 10 mg of active compound are mixed with 0.5 ml of solvent and the concentrate is diluted with solvent to the desired concentration. The active compound solution is injected into the abdomen (Boophilus microplus), and the animals are transferred into dishes and stored in a climate-controlled room. After 7 days, the efficacy in % is determined. The activity is assessed by laying of fertile eggs. 100% means that none of the ticks has laid any fertile eggs.

Data set [5] deals with green peach aphid (Myzus persicae). As to the kind of experiment: Myzus persicae spray test (MYZUPE). The data set is classed as in vivo. The conditions noted are these: 100 g/ha, after 6 days. As to the method: Myzus persicae-Spray Test (MYZUPE) [table] To produce a suitable active compound formulation, 1 part by weight of active compound is mixed with the stated amounts of solvent and emulsifier, and the concentrate is diluted with emulsifier-containing water to the desired concentration. Discs of Chinese cabbage leaves (Brassica pekinensis) infested by all stages of the green peach aphid (Myzus persicae) are sprayed with an active compound formulation of the desired concentration. After 6 days, the efficacy in % is determined 100% means that all the aphids have been killed; 0% means that none of the aphids have been killed.

[6] abbreviates: HPLC, acidic range pH 2.7, 43° C.

Like-named read-outs stand apart in the source and are kept apart here.

For the molecule `CCn1c(C(=O)NC(c2cccc(C(F)(F)F)c2)C(F)(F)F)cc2cc(C(=O)NC3CC3)c(C)nc21` (centres unmarked) [Compound 1, N^5-Cyclopropyl-1-ethyl-6-methyl-N^2-{2,2,2-trifluoro-1-[3-(trifluoromethyl)phenyl]ethyl}-1H-pyrrolo[2,3-b]pyridine-2,5-dicarboxamide], the chromatographic logP in data set [1] (pH 2.7, final compounds of the synthesis examples, read-out: log P (HPLC-MS)) came out at 3.52. Also, the “efficacy (kill)” value in the data set on Ctenocephalides felis, in the data set on Lucilia cuprina larvae and in the data set on adult Musca domestica was 100% in each case. Besides, the efficacy in data set [2] is 100%; in [4], 90%. The pest or weed control at 100 g/ha in [3] (Phaedon cochleariae, 168 h) is 100%. The “efficacy (laying of fertile eggs)” value with Boophilus microplus is listed as 100%.
Consider `CCn1c(C(=O)NC(c2cccc(C(F)(F)F)c2)C(F)(F)F)cc2cc(C(=O)NC3(C#N)CC3)c(C)nc21` (centres unmarked) [Compound 6], for which, in data set [1] (setting [6]), the log p was found to be 3.53. For the same molecule, the “efficacy (kill)” value with Ctenocephalides felis, with Lucilia cuprina larvae and in the data set with adult Musca domestica was 100% each time. For the same molecule, the efficacy in data set [2] was 100%; in [3] it was 100%; in data set [5], 100%; in data set [4], 90%. The “efficacy (laying of fertile eggs)” value in the data set with Boophilus microplus is listed as 100%.
In data set [1] (setting [6]), `CCn1c(C(=O)NC(c2cccc(C(F)(F)F)c2)C(F)(F)F)cc2cc(C(=O)NC3CC3)c(Cl)nc21` (centres unmarked) [Compound 12] yielded a log p of 3.70. In addition, the “efficacy (kill)” value in the data set with Ctenocephalides felis, in the data set on Lucilia cuprina larvae and with adult Musca domestica was 100% in each case. Moreover, the efficacy in [2], in data set [3] and in [4] was 100% in each case. Moreover, in the data set with Boophilus microplus, the “efficacy (laying of fertile eggs)” value is 100%.
In data set [1] (setting [6]), `CCn1c(C(=O)NC(c2cccc(C(F)(F)F)c2)C(F)(F)F)cc2cc(C(=O)NC3CCC3)c(Cl)nc21` (centres unmarked) [Compound 15] displayed a log p of 4.12. Moreover, the efficacy in [3] came to 100%; in [5] it was 90%.
Turning to `Cn1c(C(=O)NC(c2cccc(C(F)(F)F)c2)C(F)(F)F)cc2cc(C(=O)NC3CC3)c(Cl)nc21` (centres unmarked) [Compound 22], in data set [1] (HPLC, acidic range pH 2.7, 43° C., read-out: log p), the chromatographic logP turned out to be 3.4. For the same molecule, the results for the “efficacy (kill)” value in the data set on Ctenocephalides felis, in the data set on Lucilia cuprina larvae and in the data set with adult Musca domestica were 95%, 100% and 100%, respectively. Also, the efficacy in data set [2] and in [4] was 100% in each case. The Emax at 4 g/ha in data set [2] (Spodoptera frugiperda, 168 h, SPODFR, 4 g of ai/ha, 7 d, read-out: % Efficacy dat) is 100%; in data set [4] (Tetranychus urticae, 144 h, TETRUR, 4 g of ai/ha, 6 d, read-out: % Efficacy dat), 90%. For the same molecule, the pest or weed control at 100 g/ha in data set [3] (Phaedon cochleariae, 168 h) was determined as 100%. Further, in data set [3] (Phaedon cochleariae, 168 h, PHAECO, 0.8 g of ai/ha, 7 d, read-out: % Efficacy dat), the percent efficacy (larval mortality) at 0.8 g/ha was determined as 100%. In addition, the “efficacy (laying of fertile eggs)” value in the data set with Boophilus microplus stood at 100%.
In [1] (setting [6]), `CCn1c(C(=O)NC(c2cc(Cl)c(F)c(Cl)c2)C(F)(F)F)cc2cc(C(=O)NC3(C#N)CC3)c(Cl)nc21` (centres unmarked) [Compound 27] gave a log p of 4.11. Moreover, the “efficacy (kill)” value in the data set on Ctenocephalides felis, in the data set with Lucilia cuprina larvae and with adult Musca domestica was 100% in each case. The efficacy in data set [2], in [3] and in [4] was 100% in each case. In addition, the “efficacy (laying of fertile eggs)” value with Boophilus microplus came to 100%.
For the molecule `CCn1c(C(=O)NC(c2ccc(Cl)c(Cl)c2)C(F)(F)F)cc2cc(C(=O)NC3(C#N)CC3)c(Cl)nc21` (centres unmarked) [Compound 32], the log p in [1] (setting [6]) is on record as 3.94. Moreover, the “efficacy (kill)” value in the data set on Ctenocephalides felis, with Lucilia cuprina larvae and in the data set on adult Musca domestica was 100% throughout. For the same molecule, the efficacy in [2], in [3] and in [4] was 100% each time. Further, the “efficacy (laying of fertile eggs)” value in the data set with Boophilus microplus was 100%.
For the molecule `CCn1c(C(=O)NC(c2ccc(F)c(C(F)(F)F)c2)C(F)(F)F)cc2cc(C(=O)NC3(C#N)CC3)c(Cl)nc21` (centres unmarked) [Compound 53], the log p in data set [1] (setting [6]) is on record as 3.77. Also, the “efficacy (kill)” value with Ctenocephalides felis, in the data set on Lucilia cuprina larvae and in the data set with adult Musca domestica was 100% throughout. In addition, the efficacy in data set [2], in [3] and in data set [4] was 100% in each case. In addition, the “efficacy (laying of fertile eggs)” value in the data set on Boophilus microplus is on record as 100%.
As to `CCn1c(C(=O)NC(c2cc(Cl)c(F)c(Cl)c2F)C(F)(F)F)cc2cc(C(=O)NC3(C(N)=S)CC3)c(Cl)nc21` (centres unmarked) [Compound 63], the log p in data set [1] (setting [6]) is 4.20. Moreover, the “efficacy (kill)” value in the data set with Ctenocephalides felis, in the data set on Lucilia cuprina larvae and in the data set on adult Musca domestica was 100% throughout. Besides, the efficacy in [2] was found to be 100%; in [3], 100%; in data set [4], 90%. For the same molecule, the “efficacy (laying of fertile eggs)” value with Boophilus microplus was found to be 100%.
Turning to `CCn1c(C(=O)NC(c2cc(Cl)c(F)c(Cl)c2)C(F)(F)F)cc2cc(C(=O)NC3(C(N)=S)CC3)c(Cl)nc21` (centres unmarked) [Compound 64], the log p in data set [1] (setting [6]) came out at 3.97. Moreover, the “efficacy (kill)” value in the data set on Ctenocephalides felis, in the data set with Lucilia cuprina larvae and in the data set with adult Musca domestica was 100% in each case. In addition, the efficacy in [2], in data set [3] and in data set [4] was 100% each time. Further, the “efficacy (laying of fertile eggs)” value in the data set on Boophilus microplus came to 100%.
As for `CCn1c(C(=O)NC(c2ccc(F)c(Cl)c2)C(F)(F)F)cc2cc(C(=O)NC3(C(N)=S)CC3)c(Cl)nc21` (centres unmarked) [Compound 65], the log p in data set [1] (setting [6]) was 3.51. Also, the “efficacy (kill)” value in the data set with Ctenocephalides felis came to 100%; in the data set on Lucilia cuprina larvae, 100%; with adult Musca domestica it was 80%. Moreover, the efficacy was determined as 100% in [2], 100% in data set [3] and 90% in data set [4]. Further, the “efficacy (laying of fertile eggs)” value with Boophilus microplus came to 100%.
Take `CCn1c(C(=O)NC(c2ccc(F)c(C(F)(F)F)c2)C(F)(F)F)cc2cc(C(=O)NC3(C#N)CC3)c(C)nc21` (centres unmarked) [Compound 75]: in data set [1] (setting [6]), the log p was determined as 3.64. The efficacy in data set [2] was determined as 100%; in data set [3], 100%; in [5], 90%; in [4] it was 100%.
